Data from patent publication US20230028658A1, “EXPANDED DOSAGE REGIMENS FOR INTEGRIN INHIBITORS” (Pliant Therapeutics, Inc., priority 2021, published 2023).
One block for each molecule: values may come before it.

What was measured:
[1] = target: recombinant human integrin αvβ6 (Homo sapiens, UniProt P06756+P18564); assay: Solid phase integrin αvβ6 binding assay; settings: read-out: αvβ6 Inhibition IC50 (nM) - range
Experimental: Microplates were coated with recombinant human integrin αvβ6 (2 μg/mL) in PBS (100 μL/well 25° C., overnight). The coating solution was removed, washed with wash buffer (0.05% Tween 20; 0.5 mM MnCl2; in 1×TBS). The plate was blocked with 200 μL/well of Block Buffer (1% BSA; 5% sucrose; 0.5 mM MnCl2; in 1×TBS) at 37° C. for 2 h. Dilutions of testing compounds and recombinant TGFβ1 LAP (0.67 μg/mL) in binding buffer (0.05% BSA; 2.5% sucrose; 0.5 mM MnCl2; in 1×TBS) were added. The plate was incubated for 2 hours at 25° C., washed, and incubated for 1 hour with Biotin-Anti-hLAP. Bound antibody was detected by peroxidase-conjugated streptavidin. The IC50 values for testing compounds were calculated by a four-parameter logistic regression.
The compounds tested were compound samples prepared according to procedures described in the Synthetic Examples section, with the stereochemical purity as indicated in the Examples.

[2] = tested on: Type I Collagen gene Col1a1; assay: Col1a1 expression in lung slices versus DMSO control slices (FIG. 5A, 5B, 6A, 6C); format: cell-based; settings: FIG. 6A; compared to the DMSO vehicle control slices
lung Col1a1 expression [3] = assay: Precision cut lung slices, chronic bleomycin, comparison with nintedanib and pirfenidone (Example B10); format: cell-based, Mice (C57BL/6); settings: chronic bleomycin PCLS, 7 days culture, vs DMSO vehicle; FIG. 6A
Experimental: (§1) Mice (C57BL/6) were administered 3 U/kg of bleomycin (Teva Pharmaceuticals; North Wales, Pa.) on Day 0 and 1 U/kg of bleomycin on days 14, 28, 42 and 56 via oropharyngeal aspiration while under anesthesia. At day 70, 14 days following the final bleomycin insult, precision cut lung slices were obtained. Following euthanization, 2% low gelling temp agarose was injected into the mouse lungs via the trachea. […] The lobes were then subjected to precision slicing to obtain samples for culture using a microtome (Compresstome VF-300-0Z, Precisionary; Greenville, N.C.). Individual slices were distributed in a multiwell culture plate and cultured for 7 days under control (DMSO) and test compound conditions. The viability of the slices over the course of culturing was confirmed by WST-1 assay of mitochondrial activity.
During the culture period, slices in the control group were treated with DMSO and slices in the test group were treated with a DMSO solution of one of: compound 5; nintedanib; pirfenidone; a combination of nintedanib and compound 5; a combination of pirfenidone and compound 5; or the small molecule ALK5 inhibitor. Compound 5 was […] effective to equal or exceed its respective IC50 values at αvβ6 and αvβ1. […] Nintendanib and pirfenidone were analyzed at concentrations 10× their reported therapeutic concentrations.

COL1A1 expression = assay: PCLS from IPF lung tissue, seven days, COL1A1 expression; format: cell-based, human; settings: PCLS from 5-7 IPF lung tissue samples, Compound 5 200 nM, nintedanib 75 nM, pirfenidone 50 μm, FIG. 6D
Experimental: PCLS from 5-7 idopathic pulmonary fibrosis (IPF) lung tissue samples were cultured for seven days with one of: DMSO; Compound 5 at 200 nM; nintedanib at 75 nM; pirfenidone at 50 μm; a combination of Compound 5 at 200 nM and nintedanib at 75 nM; a combination of Compound 5 at 200 nM and pirfenidone at 50 μm; or an Alk5 inhibitor at 1 μm. […] FIG. 6D is a bar graph showing relative expression of COL1A1 in precision cut lung slices (PCLS) from idopathic pulmonary fibrosis (IPF) lung tissue upon exposure to Compound 5, clinical standard of care compounds nintedanib (Nin) and pirfenidone (Pirf), and an ALK5 inhibitor, all versus DMSO control.
PCLS from a single IPF lung tissue sample were cultured for seven days with Compound 5 at concentrations of 200 pM, 2 nM, 60 nM, 200 nM, and 1 μM, along with 0.1% DMSO control and an Alk5 inhibitor at 1 μM. […] COL1A1 expression is also graphed for the PCLS in the presence of 0.1% DMSO control, and an Alk5 inhibitor at 1 μM.

[4] = tested on: Type I Collagen gene Col1a1 expression; assay: Precision cut lung slices of mice under acute bleomycin exposure, Col1a1 expression; format: cell-based, Mice (C57BL/6); settings: acute bleomycin PCLS, 3 days culture, normalized to DMSO; FIG. 5A
Experimental: Mice (C57BL/6) were administered 3 U/kg of bleomycin (Teva Pharmaceuticals; North Wales, Pa.) on day 0 via oropharyngeal aspiration while under anesthesia. On day 14, precision cut lung slices were obtained. Following euthanization, 2% low gelling temp agarose was injected into the mouse lungs via the trachea. […] The lobes were then subjected to precision slicing to obtain samples for culture using a microtome (Compresstome VF-300-0Z, Precisionary; Greenville, N.C.). Individual slices were distributed in a multiwell culture plate and cultured for 3 days under control (DMSO) and test compound conditions.

lung Col1a1 expression [5] = assay: Precision cut lung slices of mice under chronic bleomycin exposure, Col1a1 expression (Example B9); format: cell-based, Mice (C57BL/6); settings: chronic bleomycin PCLS, 7 days culture, normalized to DMSO; FIG. 5B
Experimental: as §1, with “after” for “following”
During the culture period, slices in the control group were treated with DMSO and slices in the test group were treated with a DMSO solution of one of: the selective antibody αvβ6 inhibitor 3G9; the αvβ1-selective small molecule inhibitor; a combination of the selective antibody αvβ6 inhibitor 3G9 and the αvβ1-selective small molecule inhibitor; compound 5; and the small molecule ALK5 inhibitor. The selective αvβ1 and αvβ6 integrin inhibitors were analyzed at ≥their respective IC90 concentrations for inhibition of TGF-beta activation. […]

lung Col1a1 expression [6] = assay: Precision cut lung slices from human IPF explants, 3 days, Col1a1 expression; format: cell-based; settings: human IPF PCLS, 3G9 ≥400 ng/mL, compound 5 179 nM, ALK5 inhibitor 1 μM, FIG. 6C
Text: Explanted lung tissue was obtained from human IPF subjects and inflated with agarose as described in the preceding examples. Biopsy cores were obtained from the agarose-inflated lung tissue. The biopsy cores were subjected to precision slicing to obtain several hundred μm thick. Individual slices were distributed in a multiwell culture plate and cultured for […] under control (DMSO) and test compound conditions. The viability of the slices over the course of culturing was confirmed by WST-1 assay of mitochondrial activity.

Chain of recombinant human integrin αvβ6 (P06756 31-992 limits assumed): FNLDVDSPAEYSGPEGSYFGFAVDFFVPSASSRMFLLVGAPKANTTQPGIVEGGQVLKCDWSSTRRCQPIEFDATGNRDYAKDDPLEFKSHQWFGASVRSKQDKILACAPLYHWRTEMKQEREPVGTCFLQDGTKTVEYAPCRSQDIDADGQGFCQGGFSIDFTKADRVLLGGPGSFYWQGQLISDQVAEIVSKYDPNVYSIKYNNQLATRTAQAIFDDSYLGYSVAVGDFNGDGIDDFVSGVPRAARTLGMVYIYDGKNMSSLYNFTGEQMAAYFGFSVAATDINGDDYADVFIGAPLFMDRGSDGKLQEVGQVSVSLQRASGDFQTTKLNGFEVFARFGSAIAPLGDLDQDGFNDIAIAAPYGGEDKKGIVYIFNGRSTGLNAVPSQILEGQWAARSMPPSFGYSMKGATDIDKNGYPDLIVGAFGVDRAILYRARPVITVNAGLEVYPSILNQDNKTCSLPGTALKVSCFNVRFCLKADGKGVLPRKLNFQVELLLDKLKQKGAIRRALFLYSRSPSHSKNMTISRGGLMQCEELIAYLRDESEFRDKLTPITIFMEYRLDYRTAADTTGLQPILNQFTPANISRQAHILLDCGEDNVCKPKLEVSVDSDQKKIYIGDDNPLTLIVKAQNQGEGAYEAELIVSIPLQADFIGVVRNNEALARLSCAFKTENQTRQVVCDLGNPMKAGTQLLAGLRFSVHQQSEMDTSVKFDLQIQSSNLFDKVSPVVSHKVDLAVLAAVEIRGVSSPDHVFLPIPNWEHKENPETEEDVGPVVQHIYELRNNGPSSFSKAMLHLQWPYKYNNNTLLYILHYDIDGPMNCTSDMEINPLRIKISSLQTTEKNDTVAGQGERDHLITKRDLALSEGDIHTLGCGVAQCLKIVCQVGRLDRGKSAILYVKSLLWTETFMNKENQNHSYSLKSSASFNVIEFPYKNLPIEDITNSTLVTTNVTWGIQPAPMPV
Chain of recombinant human integrin αvβ6 (P18564 22-707 limits assumed): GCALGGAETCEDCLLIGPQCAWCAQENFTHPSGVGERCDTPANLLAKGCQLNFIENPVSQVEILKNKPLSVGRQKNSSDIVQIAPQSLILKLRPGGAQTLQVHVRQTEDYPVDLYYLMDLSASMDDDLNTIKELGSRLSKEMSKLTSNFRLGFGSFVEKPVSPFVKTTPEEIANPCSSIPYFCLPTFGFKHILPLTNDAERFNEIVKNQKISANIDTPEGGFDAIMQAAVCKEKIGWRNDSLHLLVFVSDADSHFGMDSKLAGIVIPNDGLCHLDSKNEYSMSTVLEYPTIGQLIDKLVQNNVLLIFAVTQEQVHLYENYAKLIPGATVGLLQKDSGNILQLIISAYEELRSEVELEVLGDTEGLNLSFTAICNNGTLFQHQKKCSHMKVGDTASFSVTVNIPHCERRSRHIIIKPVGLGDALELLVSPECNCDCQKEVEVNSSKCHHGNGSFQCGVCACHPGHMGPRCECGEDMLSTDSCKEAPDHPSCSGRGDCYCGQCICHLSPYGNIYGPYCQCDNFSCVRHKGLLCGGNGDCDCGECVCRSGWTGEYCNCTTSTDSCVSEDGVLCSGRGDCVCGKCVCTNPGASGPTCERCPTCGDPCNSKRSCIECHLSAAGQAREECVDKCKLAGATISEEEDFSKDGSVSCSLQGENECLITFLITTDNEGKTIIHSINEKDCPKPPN

IC50 [1]: < 50 nM
Structure (SMILES): CO[C@H](C)CN(CCCCc1ccc2c(n1)NCCC2)CC[C@H](Nc1ncc(C2CC2)cn1)C(=O)O [Compound 124, (S)-2-((5-cyclopropylpyrimidin-2-yl)amino)-4-(((R)-2-methoxypropyl) (4-(5,6,7,8-tetrahydro-1,8-naphthyridin-2-yl)butyl)amino) butanoic acid]

IC50 [1]: 250 to 1000 nM
Structure (SMILES): COC[C@@H](F)CN(CCCCc1ccc2c(n1)NCCC2)CC[C@H](Nc1ccncn1)C(=O)O [Compound 127, (S)-4-(((S)-2-fluoro-3-methoxypropyl) (4-(5,6,7,8-tetrahydro-1,8-naphthyridin-2-yl)butyl)amino)-2-(pyrimidin-4-ylamino) butanoic acid]

IC50 [1]: > 1000 nM
Structure (SMILES): COC[C@@H](F)CN(CCCCc1ccc2c(n1)NCCC2)CC[C@H](Nc1cc(-c2ccccc2)ncn1)C(=O)O [Compound 128, (S)-4-(((S)-2-fluoro-3-methoxypropyl) (4-(5,6,7,8-tetrahydro-1,8-naphthyridin-2-yl)butyl)amino)-2-((6-phenylpyrimidin-4-yl)amino) butanoic acid]

IC50 [1]: 50 to 250 nM
Structure (SMILES): O=C(O)[C@H](CCN(CCCCc1ccc2c(n1)NCCC2)CCC(F)F)Nc1ncc(Br)cn1 [Compound 131, (S)-2-((5-bromopyrimidin-2-yl)amino)-4-((3,3-difluoropropyl) (4-(5,6,7,8-tetrahydro-1,8-naphthyridin-2-yl)butyl)amino) butanoic acid]

IC50 [1]: 50 to 250 nM
Structure (SMILES): O=C(O)[C@H](CCN(CCCCc1ccc2c(n1)NCCC2)CCC(F)F)Nc1ncc(C2CC2)cn1 [Compound 135, (S)-2-((5-cyclopropylpyrimidin-2-yl)amino)-4-((3,3-difluoropropyl) (4-(5,6,7,8-tetrahydro-1,8-naphthyridin-2-yl)butyl)amino) butanoic acid]

IC50 [1]: < 50 nM
Structure (SMILES): Cn1ncc2c(N[C@@H](CCN(CCCF)CCCCc3ccc4c(n3)NCCC4)C(=O)O)ncnc21 [Compound 136, (S)-4-((3-fluoropropyl) (4-(5,6,7,8-tetrahydro-1,8-naphthyridin-2-yl)butyl)amino)-2-((1-methyl-1H-pyrazolo[3,4-d]pyrimidin-4-yl)amino) butanoic acid]

IC50 [1]: < 50 nM
Structure (SMILES): O=C(O)[C@H](CCN(CCCCc1ccc2c(n1)NCCC2)CCOc1ccc(F)cc1)Nc1ncc(C(F)(F)F)cn1 [Compound 139, (S)-4-((2-(4-fluorophenoxy)ethyl) (4-(5,6,7,8-tetrahydro-1,8-naphthyridin-2-yl)butyl)amino)-2-((5-(trifluoromethyl)pyrimidin-2-yl)amino) butanoic acid]

Structure (SMILES): COC(=O)c1ccc2c(c1)NC(=O)/C2=C(\Nc1ccc(N(C)C(=O)CN2CCN(C)CC2)cc1)c1ccccc1 [nintedanib]
lung Col1a1 expression [2]: slight increase
lung slice Col1a1 expression (lung Col1a1 expression [3]): slight increase
reduced COL1A1 expression (COL1A1 expression): did not significantly reduce

Structure (SMILES): Cc1ccc(=O)n(-c2ccccc2)c1 [pirfenidone]
lung Col1a1 expression [2]: slight increase
lung slice Col1a1 expression (lung Col1a1 expression [3]): slight increase
reduced COL1A1 expression (COL1A1 expression): did not significantly reduce

Structure (SMILES): CC(C)(C)c1cc(Br)cc(C(CC(=O)O)NC(=O)CNC(=O)c2cc(O)cc(NC3=NCC(O)CN3)c2)c1 [second pan-αv small molecule inhibitor, (3S)-N-[3-hydroxy-5-[(1,4,5,6-tetrahydro-5-hydroxy-2-pyrimidinyl)amino]benzoyl]glycyl-3-[3-bromo-5-(1,1-dimethylethyl)phenyl]-3-alanine]
Type I Collagen gene Col1a1 expression [4]: reduced Type I Collagen gene Col1a1 expression

Structure (SMILES): Cc1cccc(-c2n[nH]cc2-c2ccc(F)c(-c3cnn(CCO)c3)c2)n1 [small molecule ALK5 inhibitor, 4-[2-Fluoro-5-[3-(6-methyl-2-pyridinyl)-1H-pyrazol-4-yl]phenyl]-1H-pyrazole-1-ethanol, reference compound]
Type I Collagen gene Col1a1 expression [4]: greatest decrease
lung Col1a1 expression (lung Col1a1 expression [5]): greatest decrease
lung slice Col1a1 expression (lung Col1a1 expression [3]): substantial, statistically significant (p<0.0001 vs vehicle) decrease
lung Col1a1 expression (lung Col1a1 expression [6]): substantial, statistically significant
